Test results: ChEMBL document CHEMBL1201862, “PubChem BioAssay data set” (2004)
Activity calls are given as the source filed them.

Tests used:
[1] = target: T1, Bcl-2-related protein A1 (Mus musculus, UniProt Q07440); test: small-molecule antagonists of Bfl-1/BH3 interaction – biochemical, TR-FRET, mouse Bfl-1, confirmation (AID 621);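 note: TR-FRET binding of GST-Bfl-1 to FITC-labelled Bid peptide via terbium antibody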
T1 sequence (Q07440 whole entry): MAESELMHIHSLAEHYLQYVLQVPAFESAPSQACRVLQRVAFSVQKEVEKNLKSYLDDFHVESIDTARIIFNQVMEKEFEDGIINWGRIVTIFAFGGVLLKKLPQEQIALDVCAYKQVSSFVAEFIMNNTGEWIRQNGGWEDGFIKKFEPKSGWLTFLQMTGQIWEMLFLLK

[2] = target: Glyceraldehyde-3-phosphate dehydrogenase (Homo sapiens, UniProt P04406)
Chain of Glyceraldehyde-3-phosphate dehydrogenase (P04406 whole entry): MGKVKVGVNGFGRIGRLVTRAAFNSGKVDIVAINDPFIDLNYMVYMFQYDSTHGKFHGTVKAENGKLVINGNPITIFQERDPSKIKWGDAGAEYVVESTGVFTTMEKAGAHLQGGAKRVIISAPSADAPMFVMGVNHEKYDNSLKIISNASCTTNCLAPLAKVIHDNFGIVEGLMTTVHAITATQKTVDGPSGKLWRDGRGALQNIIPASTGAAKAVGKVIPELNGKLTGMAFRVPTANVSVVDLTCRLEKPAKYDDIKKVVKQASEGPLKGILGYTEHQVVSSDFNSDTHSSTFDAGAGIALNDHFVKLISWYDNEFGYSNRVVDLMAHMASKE

[3] = target: T1, Bcl-2-related protein A1; test: Bfl-1 binding inhibitors, SAR follow-up, biochemical, fluorescence polarization (AID 1070)
[4] = target: T2, Tyrosine-protein phosphatase non-receptor type 7 (Homo sapiens, UniProt P35236); test: HePTP tyrosine phosphatase activity blockers – biochemical, absorbance, leukemia target, primary screen (AID 521); format: functional
T2 sequence (P35236 whole entry): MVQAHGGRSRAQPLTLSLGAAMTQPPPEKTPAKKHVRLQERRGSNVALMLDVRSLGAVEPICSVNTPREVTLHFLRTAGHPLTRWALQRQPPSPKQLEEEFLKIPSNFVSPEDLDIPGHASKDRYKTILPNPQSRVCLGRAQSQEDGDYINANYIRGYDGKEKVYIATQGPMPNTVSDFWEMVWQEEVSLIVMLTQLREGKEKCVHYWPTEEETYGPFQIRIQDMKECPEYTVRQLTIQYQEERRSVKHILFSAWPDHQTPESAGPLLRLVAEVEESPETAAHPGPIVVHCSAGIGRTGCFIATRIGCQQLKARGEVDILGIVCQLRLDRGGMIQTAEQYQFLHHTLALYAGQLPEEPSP

[5] = NIH3T3 cell viability loss – ATP luminescence, mouse fibroblasts, counter-screen, dose response (AID 2010); format: functional, cell-based;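 note: cells exposed to compound for about 90 hours before reading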
[6] = Trypanosoma cruzi growth suppression in host cells – NIH3T3 host cells, beta-gal luminescence, confirmation (AID 2044); format: functional, cell-based;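 note: intracellular parasites grown in NIH/3T3 mouse fibroblasts as host cells; luminescent beta-galactosidase reporter signal from transgenic T. cruzi replicating inside host cells; inhibitors lower the luminescence signal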
[7] = cells
[8] = target: Fatty acid synthase (Homo sapiens, UniProt P49327); test: inhibition of human FAS-TE enzyme activity – biochemical, kinetic fluorescence intensity, dose response (AID 624326); format: functional;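 note: rate of fluorescence rise from hydrolysis of a fluorogenic O-methyl fluorescein ester substrate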
Chain of Fatty acid synthase (P49327 whole entry): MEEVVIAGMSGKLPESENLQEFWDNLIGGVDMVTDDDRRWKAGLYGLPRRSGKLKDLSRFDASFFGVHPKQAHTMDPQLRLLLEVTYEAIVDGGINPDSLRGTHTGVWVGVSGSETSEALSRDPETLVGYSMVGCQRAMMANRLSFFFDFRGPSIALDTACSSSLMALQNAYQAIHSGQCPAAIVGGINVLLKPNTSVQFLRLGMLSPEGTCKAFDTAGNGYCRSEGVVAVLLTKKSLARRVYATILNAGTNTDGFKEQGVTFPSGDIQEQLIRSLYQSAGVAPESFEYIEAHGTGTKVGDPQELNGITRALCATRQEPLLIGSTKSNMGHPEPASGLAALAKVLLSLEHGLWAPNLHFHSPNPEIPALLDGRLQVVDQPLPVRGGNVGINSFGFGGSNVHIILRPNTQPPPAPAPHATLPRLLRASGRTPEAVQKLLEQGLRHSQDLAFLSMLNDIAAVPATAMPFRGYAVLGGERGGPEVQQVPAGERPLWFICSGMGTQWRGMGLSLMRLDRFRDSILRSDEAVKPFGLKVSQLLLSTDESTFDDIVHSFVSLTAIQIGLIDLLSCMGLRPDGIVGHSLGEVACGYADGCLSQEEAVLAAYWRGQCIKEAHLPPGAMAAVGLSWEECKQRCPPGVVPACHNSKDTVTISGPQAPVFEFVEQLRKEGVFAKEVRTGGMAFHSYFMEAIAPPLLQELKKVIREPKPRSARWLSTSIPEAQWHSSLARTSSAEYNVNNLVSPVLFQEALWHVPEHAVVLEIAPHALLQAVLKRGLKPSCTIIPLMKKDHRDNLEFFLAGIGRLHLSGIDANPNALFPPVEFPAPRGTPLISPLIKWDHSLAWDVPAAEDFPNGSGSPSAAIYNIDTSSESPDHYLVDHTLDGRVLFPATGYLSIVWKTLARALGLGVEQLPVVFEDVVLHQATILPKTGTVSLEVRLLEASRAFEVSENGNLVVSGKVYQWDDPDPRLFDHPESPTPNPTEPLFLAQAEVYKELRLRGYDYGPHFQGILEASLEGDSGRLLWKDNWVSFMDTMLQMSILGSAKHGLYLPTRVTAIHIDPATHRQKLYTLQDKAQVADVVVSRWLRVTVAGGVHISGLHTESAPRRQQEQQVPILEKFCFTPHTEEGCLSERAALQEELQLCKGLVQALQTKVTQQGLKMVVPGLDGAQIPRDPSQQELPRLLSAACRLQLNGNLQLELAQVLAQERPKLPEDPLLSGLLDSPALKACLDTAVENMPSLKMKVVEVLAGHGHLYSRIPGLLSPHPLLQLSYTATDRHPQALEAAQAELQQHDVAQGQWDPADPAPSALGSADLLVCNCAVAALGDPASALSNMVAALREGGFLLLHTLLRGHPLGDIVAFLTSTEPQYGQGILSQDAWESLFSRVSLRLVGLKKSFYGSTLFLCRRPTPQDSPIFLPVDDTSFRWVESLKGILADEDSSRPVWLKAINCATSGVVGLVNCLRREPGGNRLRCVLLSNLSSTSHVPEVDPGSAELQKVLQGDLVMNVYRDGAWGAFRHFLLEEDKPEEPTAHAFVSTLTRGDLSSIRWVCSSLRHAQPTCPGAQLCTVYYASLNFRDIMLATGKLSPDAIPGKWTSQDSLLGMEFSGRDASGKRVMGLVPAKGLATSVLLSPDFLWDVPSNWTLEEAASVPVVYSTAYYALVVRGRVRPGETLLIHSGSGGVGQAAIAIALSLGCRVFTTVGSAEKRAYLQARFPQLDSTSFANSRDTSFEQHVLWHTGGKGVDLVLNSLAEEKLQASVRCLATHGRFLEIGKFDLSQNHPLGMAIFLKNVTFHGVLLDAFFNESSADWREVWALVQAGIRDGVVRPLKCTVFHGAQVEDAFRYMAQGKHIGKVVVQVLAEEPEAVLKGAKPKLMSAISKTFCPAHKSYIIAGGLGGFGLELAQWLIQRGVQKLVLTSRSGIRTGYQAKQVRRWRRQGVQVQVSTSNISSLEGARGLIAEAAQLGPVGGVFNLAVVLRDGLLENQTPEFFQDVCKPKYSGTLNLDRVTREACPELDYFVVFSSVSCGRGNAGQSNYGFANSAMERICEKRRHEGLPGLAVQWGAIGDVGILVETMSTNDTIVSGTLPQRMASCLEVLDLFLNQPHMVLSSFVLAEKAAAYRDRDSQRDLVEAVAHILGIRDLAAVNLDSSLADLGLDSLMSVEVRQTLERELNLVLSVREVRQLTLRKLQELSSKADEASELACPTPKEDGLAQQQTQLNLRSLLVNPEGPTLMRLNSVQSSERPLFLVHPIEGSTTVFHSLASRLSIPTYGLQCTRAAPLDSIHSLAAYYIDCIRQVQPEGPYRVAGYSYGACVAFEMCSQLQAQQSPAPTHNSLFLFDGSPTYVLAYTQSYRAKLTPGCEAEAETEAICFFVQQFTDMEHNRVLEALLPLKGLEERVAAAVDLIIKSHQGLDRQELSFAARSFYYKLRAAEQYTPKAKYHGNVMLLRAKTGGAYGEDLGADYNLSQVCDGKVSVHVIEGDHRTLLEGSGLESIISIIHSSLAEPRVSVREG

[9] = target: Voltage-gated inwardly rectifying potassium channel KCNH2 (Homo sapiens, UniProt Q12809); test: concentration-dependent hERG rescue from blockers – cell-based, thallium flux, dose response (AID 2121); format: ADME
Chain of Voltage-gated inwardly rectifying potassium channel KCNH2 (Q12809 whole entry): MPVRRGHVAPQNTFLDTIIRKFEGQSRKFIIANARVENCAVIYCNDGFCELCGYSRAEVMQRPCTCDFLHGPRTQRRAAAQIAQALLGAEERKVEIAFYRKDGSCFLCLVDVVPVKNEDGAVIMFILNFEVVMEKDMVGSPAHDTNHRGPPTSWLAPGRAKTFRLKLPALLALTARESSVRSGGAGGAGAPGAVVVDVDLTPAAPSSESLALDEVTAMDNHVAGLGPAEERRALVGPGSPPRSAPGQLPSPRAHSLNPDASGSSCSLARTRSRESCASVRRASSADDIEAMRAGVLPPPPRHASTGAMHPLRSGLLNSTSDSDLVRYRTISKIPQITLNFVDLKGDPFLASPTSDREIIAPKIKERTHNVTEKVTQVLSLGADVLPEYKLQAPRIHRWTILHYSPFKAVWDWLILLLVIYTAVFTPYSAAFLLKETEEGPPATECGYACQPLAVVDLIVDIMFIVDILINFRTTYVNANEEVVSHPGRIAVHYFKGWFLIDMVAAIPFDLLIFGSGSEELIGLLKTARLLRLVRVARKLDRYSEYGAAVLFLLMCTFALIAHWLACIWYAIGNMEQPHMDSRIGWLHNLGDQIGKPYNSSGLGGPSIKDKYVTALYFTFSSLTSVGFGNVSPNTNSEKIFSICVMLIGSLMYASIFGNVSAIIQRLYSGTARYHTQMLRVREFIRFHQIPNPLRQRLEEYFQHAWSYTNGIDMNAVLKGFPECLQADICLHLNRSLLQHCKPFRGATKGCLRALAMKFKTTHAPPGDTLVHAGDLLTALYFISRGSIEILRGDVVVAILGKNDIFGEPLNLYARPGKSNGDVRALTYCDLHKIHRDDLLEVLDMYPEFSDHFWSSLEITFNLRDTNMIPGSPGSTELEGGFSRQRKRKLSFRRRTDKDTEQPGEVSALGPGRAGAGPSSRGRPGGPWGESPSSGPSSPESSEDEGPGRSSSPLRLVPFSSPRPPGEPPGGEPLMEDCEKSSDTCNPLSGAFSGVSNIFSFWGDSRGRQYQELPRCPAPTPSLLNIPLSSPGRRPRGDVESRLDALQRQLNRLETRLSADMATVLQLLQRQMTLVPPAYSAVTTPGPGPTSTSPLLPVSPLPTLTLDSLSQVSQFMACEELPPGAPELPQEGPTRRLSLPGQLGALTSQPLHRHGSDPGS

[10] = target: Genome polyprotein (dengue virus type 2, UniProt P29990); test: flavivirus cap methylation enzyme inhibition – biochemical, confirmation dose response, primary screen (AID 588689); format: functional
Chain of Genome polyprotein (P29990 2492-3391 limits assumed): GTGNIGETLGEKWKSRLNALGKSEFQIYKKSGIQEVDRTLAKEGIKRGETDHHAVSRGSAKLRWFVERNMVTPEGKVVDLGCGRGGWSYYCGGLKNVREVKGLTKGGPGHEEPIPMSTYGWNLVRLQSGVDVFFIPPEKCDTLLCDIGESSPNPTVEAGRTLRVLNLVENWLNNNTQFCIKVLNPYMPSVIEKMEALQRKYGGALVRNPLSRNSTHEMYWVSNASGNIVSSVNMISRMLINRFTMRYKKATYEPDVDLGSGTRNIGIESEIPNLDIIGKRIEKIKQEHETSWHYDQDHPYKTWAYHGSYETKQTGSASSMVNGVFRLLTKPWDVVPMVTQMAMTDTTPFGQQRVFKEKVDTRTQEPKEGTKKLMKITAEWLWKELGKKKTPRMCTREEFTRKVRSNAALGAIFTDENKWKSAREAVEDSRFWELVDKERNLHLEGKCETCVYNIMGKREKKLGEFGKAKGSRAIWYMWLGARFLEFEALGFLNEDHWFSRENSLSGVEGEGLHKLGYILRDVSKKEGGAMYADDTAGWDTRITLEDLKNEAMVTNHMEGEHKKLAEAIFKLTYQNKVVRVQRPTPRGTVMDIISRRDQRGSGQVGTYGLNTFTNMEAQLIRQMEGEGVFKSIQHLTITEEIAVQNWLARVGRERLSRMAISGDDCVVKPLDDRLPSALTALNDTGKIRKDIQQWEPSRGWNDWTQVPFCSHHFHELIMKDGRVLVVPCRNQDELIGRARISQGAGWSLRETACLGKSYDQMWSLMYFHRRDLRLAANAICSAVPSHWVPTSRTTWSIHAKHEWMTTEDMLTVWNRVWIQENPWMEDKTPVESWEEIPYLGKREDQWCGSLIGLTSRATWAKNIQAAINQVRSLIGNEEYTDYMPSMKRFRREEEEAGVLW

[11] = system: Vero; test: viability of Vero cells under compound – cytotoxicity control for flavivirus capping enzyme inhibitors (AID 588742); format: functional; details: Chlorocebus sabaeus
[12] = target: T3, Replicative DNA helicase DnaB (Mycobacterium tuberculosis, UniProt P9WMR3); test: DnaB intein splicing inhibitors, dose response, biochemical, cell-free fluorescence (AID 449749); format: functional
T3 sequence (P9WMR3 whole entry): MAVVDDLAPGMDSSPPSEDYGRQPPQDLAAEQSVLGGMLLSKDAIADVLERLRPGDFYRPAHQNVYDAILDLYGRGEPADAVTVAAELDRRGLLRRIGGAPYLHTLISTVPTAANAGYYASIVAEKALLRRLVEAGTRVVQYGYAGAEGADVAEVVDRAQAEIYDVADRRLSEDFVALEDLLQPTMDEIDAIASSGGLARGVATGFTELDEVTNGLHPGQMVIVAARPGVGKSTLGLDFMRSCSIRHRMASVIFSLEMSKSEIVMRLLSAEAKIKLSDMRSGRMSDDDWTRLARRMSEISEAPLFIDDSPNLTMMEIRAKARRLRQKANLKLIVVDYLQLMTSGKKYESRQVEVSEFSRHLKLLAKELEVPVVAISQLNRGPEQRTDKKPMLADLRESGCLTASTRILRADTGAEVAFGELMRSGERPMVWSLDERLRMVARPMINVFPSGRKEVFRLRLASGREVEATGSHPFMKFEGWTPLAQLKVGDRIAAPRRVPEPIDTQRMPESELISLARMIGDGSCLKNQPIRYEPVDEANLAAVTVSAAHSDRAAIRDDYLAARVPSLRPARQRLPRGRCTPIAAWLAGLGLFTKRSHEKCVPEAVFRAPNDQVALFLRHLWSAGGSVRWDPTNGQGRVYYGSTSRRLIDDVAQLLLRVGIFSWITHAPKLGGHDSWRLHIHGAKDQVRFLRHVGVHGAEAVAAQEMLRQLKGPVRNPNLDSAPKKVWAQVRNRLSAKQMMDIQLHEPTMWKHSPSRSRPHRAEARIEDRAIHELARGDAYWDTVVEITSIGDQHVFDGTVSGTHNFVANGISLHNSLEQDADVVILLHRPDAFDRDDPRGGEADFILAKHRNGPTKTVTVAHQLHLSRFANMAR

[13] = target: T4, Rac GTPase-activating protein 1 (Homo sapiens, UniProt Q9H0H5); test: blockers of MgcRacGAP-driven Rac1 GTP hydrolysis – biochemical, ADP Hunter fluorescence, primary and confirmatory, confirmation (AID 624330); format: functional
T4 sequence (Q9H0H5 whole entry): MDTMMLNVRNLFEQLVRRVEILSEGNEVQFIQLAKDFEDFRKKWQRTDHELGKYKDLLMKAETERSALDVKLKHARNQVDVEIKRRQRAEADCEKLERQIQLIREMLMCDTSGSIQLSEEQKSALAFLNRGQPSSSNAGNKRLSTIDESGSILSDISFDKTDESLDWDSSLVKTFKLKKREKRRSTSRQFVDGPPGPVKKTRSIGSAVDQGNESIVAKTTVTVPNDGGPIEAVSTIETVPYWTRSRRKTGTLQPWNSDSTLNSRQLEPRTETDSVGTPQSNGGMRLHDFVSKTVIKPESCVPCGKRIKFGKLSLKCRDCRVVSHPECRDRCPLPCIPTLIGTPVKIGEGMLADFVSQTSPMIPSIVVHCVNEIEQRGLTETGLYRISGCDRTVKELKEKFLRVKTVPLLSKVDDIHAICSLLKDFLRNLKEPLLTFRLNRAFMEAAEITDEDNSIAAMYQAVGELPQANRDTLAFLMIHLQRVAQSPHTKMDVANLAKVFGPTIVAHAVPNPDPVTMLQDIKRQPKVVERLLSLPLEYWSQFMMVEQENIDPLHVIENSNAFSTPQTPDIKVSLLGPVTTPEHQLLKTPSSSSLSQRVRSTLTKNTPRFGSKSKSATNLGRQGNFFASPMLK

[14] = target: T5, Heat shock factor protein 1 (Mus musculus, UniProt P38532); test: enhancement of HSF1-driven luciferase signal – cell-based, NIH3T3, luminescence, dose retest, confirmation (AID 435004); format: functional;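 note: stress induced by proteasome inhibitor MG132 added 30 min after compound; luciferase reporter driven by HSF1 response element in NIH3T3 cells; actives raise luminescence as potentiators of the MG132 stress response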
T5 sequence (P38532 whole entry): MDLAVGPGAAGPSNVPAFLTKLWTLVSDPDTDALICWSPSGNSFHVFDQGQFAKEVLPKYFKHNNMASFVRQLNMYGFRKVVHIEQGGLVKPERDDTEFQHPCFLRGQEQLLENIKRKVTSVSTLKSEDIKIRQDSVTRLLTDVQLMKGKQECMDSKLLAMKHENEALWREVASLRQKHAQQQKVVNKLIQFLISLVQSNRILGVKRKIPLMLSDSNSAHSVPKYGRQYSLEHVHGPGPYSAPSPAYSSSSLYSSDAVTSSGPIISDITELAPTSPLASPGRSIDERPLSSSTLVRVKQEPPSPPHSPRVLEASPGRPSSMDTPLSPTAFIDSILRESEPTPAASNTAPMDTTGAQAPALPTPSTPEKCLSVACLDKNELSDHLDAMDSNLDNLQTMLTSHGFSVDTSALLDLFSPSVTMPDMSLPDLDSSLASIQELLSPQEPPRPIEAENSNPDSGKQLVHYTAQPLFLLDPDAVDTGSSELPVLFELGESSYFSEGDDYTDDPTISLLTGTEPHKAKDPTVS

[15] = target: T6, Protein RecA (Mycobacterium tuberculosis, UniProt P9WHJ3); test: Fluorescence Cell-Free Homogeneous Dose Retest to Identify Inhibitors of RecA-Intein Splicing Activity. [Related pubchem assays (depositor defined):AID2097, AID2223, AID489010, AID492950]; format: functional
T6 sequence (P9WHJ3 whole entry): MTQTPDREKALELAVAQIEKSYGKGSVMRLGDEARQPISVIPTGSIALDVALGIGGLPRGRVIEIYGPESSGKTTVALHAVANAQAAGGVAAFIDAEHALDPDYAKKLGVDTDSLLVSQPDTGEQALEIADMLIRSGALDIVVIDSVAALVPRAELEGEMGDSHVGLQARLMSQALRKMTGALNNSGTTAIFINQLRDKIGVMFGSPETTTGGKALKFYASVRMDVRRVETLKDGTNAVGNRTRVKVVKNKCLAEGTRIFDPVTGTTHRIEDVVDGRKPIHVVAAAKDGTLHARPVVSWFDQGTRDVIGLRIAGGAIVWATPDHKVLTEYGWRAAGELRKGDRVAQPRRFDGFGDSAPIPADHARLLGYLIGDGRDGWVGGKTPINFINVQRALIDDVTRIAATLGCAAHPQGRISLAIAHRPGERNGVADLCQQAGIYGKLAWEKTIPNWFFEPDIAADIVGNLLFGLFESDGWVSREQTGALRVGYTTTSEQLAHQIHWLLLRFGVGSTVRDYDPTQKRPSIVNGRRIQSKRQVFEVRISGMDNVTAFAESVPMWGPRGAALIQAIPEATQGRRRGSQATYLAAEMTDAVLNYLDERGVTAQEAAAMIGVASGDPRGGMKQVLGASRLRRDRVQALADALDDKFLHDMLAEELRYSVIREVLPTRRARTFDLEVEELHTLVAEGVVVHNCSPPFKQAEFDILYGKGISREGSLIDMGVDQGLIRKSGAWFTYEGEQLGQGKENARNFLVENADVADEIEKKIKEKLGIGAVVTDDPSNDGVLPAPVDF

[16] = target: T7, Mannose-6-phosphate isomerase (Homo sapiens, UniProt P34949); test: MPI inhibition at elevated mannose 6-phosphate – biochemical, fluorescence intensity, high mannose 6-phosphate, primary screen (AID 1220)
T7 sequence (P34949 whole entry): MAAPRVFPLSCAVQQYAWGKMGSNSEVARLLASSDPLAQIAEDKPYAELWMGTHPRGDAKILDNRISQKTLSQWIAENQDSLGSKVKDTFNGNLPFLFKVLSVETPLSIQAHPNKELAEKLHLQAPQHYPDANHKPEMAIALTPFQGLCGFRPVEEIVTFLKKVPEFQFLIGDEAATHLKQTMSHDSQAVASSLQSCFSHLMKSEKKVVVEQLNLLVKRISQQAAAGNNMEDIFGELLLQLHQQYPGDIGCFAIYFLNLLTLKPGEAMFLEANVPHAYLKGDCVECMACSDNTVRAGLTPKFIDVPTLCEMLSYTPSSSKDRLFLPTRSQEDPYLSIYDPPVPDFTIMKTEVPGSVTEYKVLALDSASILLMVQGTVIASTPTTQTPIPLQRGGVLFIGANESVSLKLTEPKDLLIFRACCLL

With `O=C1C(Cl)=C(N2CCCC2)C(=O)N1c1ccc(Cl)c(Cl)c1` the IC50 [1] was > 100 µM (not active), the IC50 [2] was > 100 µM (not active) and the IC50 [3] was > 100 µM (not active).
With `Cc1ccc(-n2nnc(-c3cnc4ccccc4c3)n2)cc1` the IC50 [1] was > 100 µM (not active) and the IC50 [3] was > 100 µM (not active).
For `CNC(=O)N(c1ccccc1)c1ccccc1`, the IC50 [4] was > 100 µM (not active).
In the case of `CCOC(=O)N1CCN(S(=O)(=O)c2ccc(C(=O)N(CCN(C)C)c3nc4ccc(Cl)cc4s3)cc2)CC1`, the EC50 [5] is reported as > 60 µM (not active), the EC50 [6] is reported as < 0.1 µM (active) and the EC50 [7] is reported as 0.07 µM (active).
With `Cc1cccc(N2CCN(C(=O)CNC(=O)c3cccc([N+](=O)[O-])c3)CC2)c1C` the IC50 [8] was 1.51 µM (active) and the EC50 [9] was 0.38 µM (active).
For `Cc1ccsc1C(=O)C1CCCN(Cc2c(C)nn(C(C)C)c2C)C1` (configuration not stated), the EC50 [5] was > 60 µM (not active), the EC50 [6] was < 0.1 µM (active) and the EC50 [7] was 0.008 µM (active).
For `FC(F)(F)c1cnc2c(c1)nc(S)n2-c1ccc(Cl)cc1`, the EC50 [9] was 4.84 µM (active).
For `COc1ccc2c(c1)-c1nc(/N=C/c3c(O)ccc4ccccc34)sc1CC2`, the IC50 [10] was 6.25 µM (active), the CC50 [11] was > 40 µM (active) and the AC50 [12] was 40.8 µM (active). For the same compound, the IC50 [13] was 22.2 µM (active), the EC50 [14] was > 260 µM (inactive) and the EC50 [15] was > 380 µM (inconclusive). For the same compound, the IC50 [16] was 13 µM (active).
